Measurements: ChEMBL document CHEMBL1154198, “Chemical genetics of Plasmodium falciparum” (Nature, 2010)

What was measured:
[1] = test system: Plasmodium falciparum; assay: ST_JUDE: Plasmodium falciparum 3D7 EC50 (uM) as measured by SYBR green dye; format: functional, organism-based
[2] = test system: Plasmodium falciparum; assay: ST_JUDE: Plasmodium falciparum K1 EC50 (uM) as measured by SYBR green dye; format: functional, organism-based

SMILES	EC50 [1] [µM]	EC50 [2] [µM]
CC(=O)Nc1ccc(Nc2c3ccccc3nc3ccccc23)cc1	2.69	1.37
CCCCCOc1ccc(NC2=C(N3CCCC3)C(=O)c3ccccc3C2=O)cc1	> 15	1.92
Cc1ccc(C2CC(c3cccs3)=NN2C(=O)c2ccc(Br)o2)cc1 (configuration not stated)	0.532	> 15
Cc1cc(N2CCN(C)CC2)nc2ccc(NC(=O)c3cccc(N(C)C)c3)cc12	0.62	6.32
CC(=O)N(C)C1=C(N2CCOCC2)C(=O)c2ccccc2C1=O	2.72	4.78
CN1CCN(c2ccc(-c3cccc(NC(=O)c4cccc([N+](=O)[O-])c4)c3)nn2)CC1	> 15	3.83
Oc1c2c(nc3cc(-c4ccc(Br)cc4)nn13)CCCC2	> 15	0.632
CN1CCN(c2cc(N3CCN(C)CC3)c([N+](=O)[O-])cc2C2Nc3ccc4ccccc4c3C3=C2C(=O)CC(C)(C)C3)CC1 (configuration not stated)	3.44	> 15
CN1CCN(CCCNC(=O)c2ccc3c(c2)sc2nc(-c4ccccc4)cn23)CC1	4.06	9.15
COc1ccc(CN2CCN(Cc3cc(Br)ccc3O)CC2)cc1OC	4.91	6.31
COc1ccc(C2C(C(=O)Nc3ccc(OC)cc3OC)c3ccccc3C(=O)N2C)cc1 (configuration not stated)	4.16	4.82
COc1ccc(/C=C(\C#N)c2nn(CCO)c(N)c2C#N)cc1	> 15	> 15
Cc1cc(O)nc(-n2nc(C)cc2NC(=O)c2cccc(C(F)(F)F)c2)n1	> 15	1.5
CC(C)(C)c1ccc2c(c1)CN(Cc1ccccc1)CO2	0.239	0.0523
Cc1cc(N2CCN(C)CC2)nc2ccc(NC(=S)NCCCN3CCc4ccccc4C3)cc12	1.48	6.68
CCCC(=O)NC(c1ccc(Cl)cc1)c1c(OC(C)=O)ccc2ccccc12 (configuration not stated)	6.92	9.29
Cc1cc(C)c2nc(C)cc(Nc3cccc(Cl)c3)c2c1	0.812	3.83
CCCCn1c(N)c(C#N)c2nc3ccccc3nc21	1.52	6.01
Cc1cc(C)c2sc(N(Cc3cccnc3)C(=O)c3ccc(C#N)cc3)nc2c1	5.77	3.94
CCOc1ccc(NC2=C/C(=N/S(=O)(=O)c3ccc(OC)cc3)c3ccccc3C2=O)cc1	0.352	0.155
COc1ccc(C2CC(=O)C3=C(C2)NC(=O)CC3c2ccc(O)cc2)cc1OC (configuration not stated)	1.66	0.977
CCOC(=O)c1c(CSC(=N)N)n(-c2ccccc2)c2cc(Br)c(OC(C)=O)cc12	0.749	2.9
Cc1ccc(Nc2cc(C)nc(Nc3ccc(NS(=O)(=O)c4ccc(F)cc4)cc3)n2)cc1	0.746	7.04
COc1ccc(N2CCN(C(CNC(=O)CC(C)(C)C)c3ccc4c(c3)OCO4)CC2)cc1 (configuration not stated)	4.28	2.01

SMILES	EC50 [1] [µM]	EC50 [2] [µM]
O=C(CN(Cc1ccc(Cl)cc1)S(=O)(=O)c1ccccc1)N1CCN(c2ccccc2F)CC1	2.91	2.13
CCN(CC)c1cc(C)c2cc(NC(=O)c3cccc(OC)c3)ccc2n1	4.77	> 15
CCC1CCCCN1S(=O)(=O)c1ccc(C(=O)NNc2nc3c(C)cccc3s2)cc1 (configuration not stated)	> 15	> 15
CCOC(=O)N1CCC(NC(=O)Nc2cc(C(F)(F)F)cc(C(F)(F)F)c2)CC1	0.992	1.29
CCOc1ccccc1N(CC(=O)Nc1ccccc1C(C)C)S(=O)(=O)c1ccccc1	> 15	> 15
C=CCN1C=CC(=Cc2ccc3cc(C)ccc3[n+]2CC)C=C1	1.4	0.55
CCOc1cc(/C=C/c2ccc3cccc(O)c3n2)ccc1O	> 15	> 15
COc1ccc(C2NCCc3c2[nH]c2ccccc32)cc1CN1CCN(c2ccc([N+](=O)[O-])cc2)CC1 (configuration not stated)	3.65	3.81
CCOc1cccc(C(=O)Nc2nonc2-c2ccc(OCC)c(OCC)c2)c1	0.169	0.217
CCCOC(=O)c1cccc(NC(=O)C23CCC(C)(C(=O)O2)C3(C)C)c1 (configuration not stated)	> 15	> 15
CCOC(=O)c1cc(NC(=O)CSc2nc3ccccc3[nH]2)ccc1Cl	2.17	3.22
COc1ccc(O)c(CN2CCN(Cc3ccc(C)cc3)CC2)c1	1.62	0.988
CCOc1ccc2nc(C)cc(Nc3ccc4c(c3)OCCO4)c2c1	> 15	9.41
CCCCc1ccc2nc(C)c(CN3CCC(C)CC3)c(O)c2c1	> 15	> 15
CCOc1cc(C2Nc3cccc4cccc(c34)N2)ccc1O	> 15	> 15
CSc1ccccc1C(=O)Nc1nc(-c2ccccn2)cs1	6.82	2.04
C=CC[n+]1c(/C=C2\C=CC=CN2CC)ccc2cc(C)ccc21	2.56	2.53
C#CC[n+]1ccn2cccc2c1C	1.08	0.607
C=C(C)CNc1nncc(-c2ccccc2C)n1	> 15	> 15
Cc1cc(C)c2ccc(N)nc2c1O	3.86	4.81
CCCCOC(=O)c1c(N)n(-c2ccccc2OC)c2nc3ccccc3nc12	3.83	> 15
CCOc1ccccc1C(=O)NCCc1csc(-c2ccc(OC)cc2)n1	> 15	7.53
CCN1C=CC=C/C1=C/c1ccc2cc(C)ccc2[n+]1CC	0.543	0.453
CCCC(=O)NC(c1ccc(C(C)C)cc1)c1cc(Cl)c2cccnc2c1O (configuration not stated)	> 15	> 15

SMILES	EC50 [1] [µM]	EC50 [2] [µM]
CCOC(=O)c1ccc2nc(C)cc(Nc3ccc(C)c(Cl)c3)c2c1	1.9	> 15
COc1cc(/C=C2/C(=O)NC(=O)N(c3ccc(Cl)cc3)C2=O)cc(Br)c1OC	> 15	> 15
CCCN1C(=O)c2[nH]nc(-c3c(C)cc(C)cc3O)c2C1c1ccc(OC)cc1 (configuration not stated)	3.36	2.02
Cc1ccc(NC(=O)C2c3ccccc3C(=O)N(C3CCCC3)C2c2cccs2)cc1 (configuration not stated)	> 15	1.44
C=C(C)CCC(C)N1CCC(n2nccc2NC(=O)Nc2ccccc2Cl)CC1 (configuration not stated)	3.7	> 15
O=C(NCCN1CCC(Cc2ccccc2)CC1)c1cc(-c2cccnc2)nc2ccccc12	1.13	0.942
CCOCC(=O)Nc1cc(C(F)(F)F)ccc1Oc1cccc(Br)c1	0.83	> 15
COc1cccc(-c2nc3cc(NC(=O)c4cccc(Cl)c4Cl)ccc3o2)c1	> 15	> 15
CCOC(=O)c1cnc2c(C)cc(C)cc2c1NCc1cccnc1	4.77	6.18
Clc1ccccc1Nc1nc(NCc2ccccc2)c2ccccc2n1	1.54	4.17
CC(=O)NC(c1ccc(Cl)cc1Cl)c1ccc2cccnc2c1O (configuration not stated)	3.22	3.01
CCCOc1ccc(-c2nonc2NC(=O)c2cccc(C)c2)cc1OCCC	> 15	1.05
COc1cccc(NC(=O)C2c3ccccc3C(=O)N(C3CCCC3)C2c2cccs2)c1 (configuration not stated)	0.45	0.474
C/C(=N/NC(N)=S)C1C(=O)c2ccccc2C1=O	> 15	> 15
CCCCN(C)CCNC(=O)c1cc2c(-c3ccccc3F)nn(C)c2s1	1.62	> 15
Cc1ccc2[nH]c(-c3cccc(-c4nc5cc(C)ccc5[nH]4)n3)nc2c1	3.23	7.6
Cc1cccc(C(=O)ONC(=N)Cc2cccc3ccccc23)c1	4.7	2.63
O=C(Nc1ccc(Cl)cc1C(=O)Nc1cccc(C(F)(F)F)c1)c1ccco1	> 15	> 15
COc1ccc(OC)c(C2CC(=O)C3=C(C2)NC(=O)CC3c2ccc([N+](=O)[O-])cc2)c1 (configuration not stated)	> 15	1.53
CC(=O)N1CCc2c(sc(NC(=O)c3cc([N+](=O)[O-])ccc3Cl)c2C#N)C1	4.07	1.32
Cc1cccc(C)c1OCC(=O)N(Cc1ccc(C(C)C)cc1)Cc1ccco1	4.79	> 15
CCOc1cc(-c2nc(-c3ccc(OC)cc3)c(-c3ccccc3)[nH]2)ccc1O	1.48	2.25
CCCC(=O)NC(c1ccc(N(CC)CC)cc1)c1cc(Cl)c2cccnc2c1O (configuration not stated)	0.844	1.14
